# Laboratory results published in patent US20260365682A1, “MODULATORS OF TNF-ALPHA ACTIVITY” (Forward Therapeutics, Inc., priority 2022, published 2026).
# pIC50: −log10 of the molar value.
# Biological target: T1, TNF-α (Homo sapiens, UniProt P01375)
# T1 construct: purchased R&D 210-TA-020/CF
# Test: TNF-α Induced HEK Blue Cellular Assay (secreted alkaline phosphatase expression, QUANTI-Blue)
# Type: cell-based
# Details: HEK Blue TNFα reporter cells; TNF-α 100 μg/ml; 24 hrs at 37° C.; inhibition of secreted alkaline phosphatase; read-out: IC50 value
# Summary of the method: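 Compound was serially diluted from […] to 0.5 nM final, then incubated with 10,000 HEK Blue TNFα reporter cells per well and […] TNF-α for 24 h at 37° C. SEAP output was read by QUANTI-Blue absorbance at 620 nm. Inhibition was background-corrected against DMSO controls with and without stimulation, and IC50 was fitted with a 4-parameter logistic equation.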
# T1 sequence (P01375 77-233 limits assumed): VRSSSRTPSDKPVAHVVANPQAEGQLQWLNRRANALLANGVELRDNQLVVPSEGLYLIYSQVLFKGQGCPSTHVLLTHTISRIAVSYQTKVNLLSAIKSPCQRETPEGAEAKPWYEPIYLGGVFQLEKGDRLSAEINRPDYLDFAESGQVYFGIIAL
row,pIC50,Compound
1,> 7.00,"[2H]C([2H])([2H])N1C(=O)c2cccc(OC(F)F)c2[C@H]2C[C@@H]1c1nc3ccc(C#CCCCC(=O)O)cc3n12 [Example 98, 6-((7R,14R)-1-(difluoromethoxy)-6-(methyl-d3)-5-oxo-5,6,7,14-tetrahydro-7,14-methanobenzo[f]benzo[4,5]imidazo[1,2-a][1,4]diazocin-11-yl)hex-5-ynoic Acid]"
2,5.00 to 6.00,"[2H]C([2H])([2H])N1C(=O)c2cccc(OC(F)F)c2[C@H]2C[C@@H]1c1nc3ccc(C#Cc4nncn4C)cc3n12 [Example 25, (7R,14R)-1-(difluoromethoxy)-6-(methyl-d3)-11-((4-methyl-4H-1,2,4-triazol-3-yl)ethynyl)-6,7-dihydro-7,14-methanobenzo[f]benzo[4,5]imidazo[1,2-a][1,4]diazocin-5(14H)-one]"
3,> 7.00,"[2H]C([2H])([2H])N1C(=O)c2cccc(OC(F)F)c2[C@H]2C[C@@H]1c1nc3ccc(C#CCOC4CCN(C)CC4)cc3n12 [Example 115, (7R,14R)-1-(difluoromethoxy)-6-(methyl-d3)-11-(3-((1-methylpiperidin-4-yl)oxy)prop-1-yn-1-yl)-6,7-dihydro-7,14-methanobenzo[f]benzo[4,5]imidazo[1,2-a][1,4]diazocin-5(14H)-one]"
4,> 7.00,"[2H]C([2H])([2H])N1C(=O)c2cccc(OC(F)F)c2[C@H]2C[C@@H]1c1nc3ccc(C#CCCN4CC[C@H](F)C4)cc3n12 [Example 220, (7R,14R)-1-(difluoromethoxy)-11-(4-((S)-3-fluoropyrrolidin-1-yl)but-1-yn-1-yl)-6-(methyl-d3)-6,7-dihydro-7,14-methanobenzo[f]benzo[4,5]imidazo[1,2-a][1,4]diazocin-5(14H)-one]"
5,> 7.00,"[2H]C([2H])([2H])N1C(=O)c2cccc(OC(F)F)c2[C@H]2C[C@@H]1c1nc3ccc(C#Cc4ccc(P(C)(C)=O)cc4)cc3n12 [Example 106, (7R,14R)-1-(difluoromethoxy)-11-((4-(dimethylphosphoryl)phenyl)ethynyl)-6-(methyl-d3)-6,7-dihydro-7,14-methanobenzo[f]benzo[4,5]imidazo[1,2-a][1,4]diazocin-5(14H)-one]"
6,6.00 to 7.00,"[2H]C([2H])([2H])N1C(=O)c2cccc(OC(F)F)c2[C@H]2C[C@@H]1c1nc3ccc(C#CCCNC(=O)C4CC4)cc3n12 [Example 214, N-(4-((7R,14R)-1-(difluoromethoxy)-6-(methyl-d3)-5-oxo-5,6,7,14-tetrahydro-7,14-methanobenzo[f]benzo[4,5]imidazo[1,2-a][1,4]diazocin-11-yl)but-3-yn-1-yl)cyclopropanecarboxamide]"
7,6.00 to 7.00,"[2H]C([2H])([2H])N1C(=O)c2cccc(OC(F)F)c2[C@H]2C[C@@H]1c1nc3ccc(C#CC4CC4)c(F)c3n12 [Example 168, (7R,14R)-11-(cyclopropylethynyl)-1-(difluoromethoxy)-12-fluoro-6-(methyl-d3)-6,7-dihydro-7,14-methanobenzo[f]benzo[4,5]imidazo[1,2-a][1,4]diazocin-5(14H)-one]"
8,> 7.00,"[2H]C([2H])([2H])N1C(=O)c2cccc(OC(F)F)c2[C@H]2C[C@@H]1c1nc3ccc(C#CCN4CC[C@@H](F)C4)cc3n12 [Example 236, (7R,14R)-1-(difluoromethoxy)-11-(3-((R)-3-fluoropyrrolidin-1-yl)prop-1-yn-1-yl)-6-(methyl-d3)-6,7-dihydro-7,14-methanobenzo[f]benzo[4,5]imidazo[1,2-a][1,4]diazocin-5(14H)-one]"
9,> 7.00,"[2H]C([2H])([2H])N1C(=O)c2cccc(OC(F)F)c2[C@H]2C[C@@H]1c1nc3ccc(C#CCOCC(C)O)cc3n12 (stereo partly drawn) [Example 73, (7R,14R)-1-(difluoromethoxy)-11-(3-(2-hydroxypropoxy)prop-1-yn-1-yl)-6-(methyl-d3)-6,7-dihydro-7,14-methanobenzo[f]benzo[4,5]imidazo[1,2-a][1,4]diazocin-5(14H)-one]"
